Test results as given in BindingDB's records for patent US20250221987 (Acerand Therapeutics (Hong Kong), 2025).

Experiments:
[1] = target: Poly [ADP-ribose] polymerase 2 (Homo sapiens, UniProt Q9UGN5); test: PARP2 Enzymatic Activity Assay
Description: 2) After the coating was completed, the coating buffer was discarded. […] 6) 2000× compound was prepared. […] 10) The Stre-HRP solution was discarded.

[2] = target: Poly [ADP-ribose] polymerase 1 (Homo sapiens, UniProt P09874); test: PARP1 Enzymatic Activity Assay
Description: 2) After the coating was completed, the coating buffer was discarded. […] After washing, the blocking buffer was discarded. […] 4) 1000× compound was prepared. 1 μL of compound was transferred to a 96-well plate containing 199 μL of reaction buffer (50 mM Tris-HCl (pH 7.5), 0.005% Tween-20, 0.01% BSA) and mixed well. […] 5) 25/10×PARP1-DNA solution was prepared with reaction buffer. […] 6) 25/10×NAD+ solution was prepared with reaction buffer. […] 8) Primary antibody was 2000-fold diluted with the blocking buffer. 20 μL of primary antibody was added to the reaction plate, which was incubated at room temperature for 1.5 hours. 9) The primary antibody was discarded. […] 10) Secondary antibody was 2000-fold diluted with the blocking buffer. […] 11) The secondary antibody was discarded. […] The chemiluminescence value RLU was read with Envision.

Poly [ADP-ribose] polymerase 2, sequence (Q9UGN5 whole entry): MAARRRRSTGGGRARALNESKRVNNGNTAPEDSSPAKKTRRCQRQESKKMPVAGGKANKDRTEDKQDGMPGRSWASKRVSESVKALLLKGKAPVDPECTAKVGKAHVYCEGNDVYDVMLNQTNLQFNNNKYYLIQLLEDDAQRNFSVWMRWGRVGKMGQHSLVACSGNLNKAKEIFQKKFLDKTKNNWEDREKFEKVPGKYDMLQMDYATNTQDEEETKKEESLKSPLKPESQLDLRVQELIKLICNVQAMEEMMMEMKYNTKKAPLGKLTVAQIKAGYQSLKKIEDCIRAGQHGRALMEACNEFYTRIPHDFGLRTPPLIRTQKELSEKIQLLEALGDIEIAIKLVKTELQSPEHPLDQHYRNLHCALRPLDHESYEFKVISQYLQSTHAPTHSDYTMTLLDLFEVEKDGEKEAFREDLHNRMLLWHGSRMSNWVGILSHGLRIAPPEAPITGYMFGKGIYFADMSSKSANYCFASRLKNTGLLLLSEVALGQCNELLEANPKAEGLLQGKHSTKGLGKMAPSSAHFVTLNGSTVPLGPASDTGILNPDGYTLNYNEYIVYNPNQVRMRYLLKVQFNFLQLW
Poly [ADP-ribose] polymerase 1, sequence (P09874 whole entry): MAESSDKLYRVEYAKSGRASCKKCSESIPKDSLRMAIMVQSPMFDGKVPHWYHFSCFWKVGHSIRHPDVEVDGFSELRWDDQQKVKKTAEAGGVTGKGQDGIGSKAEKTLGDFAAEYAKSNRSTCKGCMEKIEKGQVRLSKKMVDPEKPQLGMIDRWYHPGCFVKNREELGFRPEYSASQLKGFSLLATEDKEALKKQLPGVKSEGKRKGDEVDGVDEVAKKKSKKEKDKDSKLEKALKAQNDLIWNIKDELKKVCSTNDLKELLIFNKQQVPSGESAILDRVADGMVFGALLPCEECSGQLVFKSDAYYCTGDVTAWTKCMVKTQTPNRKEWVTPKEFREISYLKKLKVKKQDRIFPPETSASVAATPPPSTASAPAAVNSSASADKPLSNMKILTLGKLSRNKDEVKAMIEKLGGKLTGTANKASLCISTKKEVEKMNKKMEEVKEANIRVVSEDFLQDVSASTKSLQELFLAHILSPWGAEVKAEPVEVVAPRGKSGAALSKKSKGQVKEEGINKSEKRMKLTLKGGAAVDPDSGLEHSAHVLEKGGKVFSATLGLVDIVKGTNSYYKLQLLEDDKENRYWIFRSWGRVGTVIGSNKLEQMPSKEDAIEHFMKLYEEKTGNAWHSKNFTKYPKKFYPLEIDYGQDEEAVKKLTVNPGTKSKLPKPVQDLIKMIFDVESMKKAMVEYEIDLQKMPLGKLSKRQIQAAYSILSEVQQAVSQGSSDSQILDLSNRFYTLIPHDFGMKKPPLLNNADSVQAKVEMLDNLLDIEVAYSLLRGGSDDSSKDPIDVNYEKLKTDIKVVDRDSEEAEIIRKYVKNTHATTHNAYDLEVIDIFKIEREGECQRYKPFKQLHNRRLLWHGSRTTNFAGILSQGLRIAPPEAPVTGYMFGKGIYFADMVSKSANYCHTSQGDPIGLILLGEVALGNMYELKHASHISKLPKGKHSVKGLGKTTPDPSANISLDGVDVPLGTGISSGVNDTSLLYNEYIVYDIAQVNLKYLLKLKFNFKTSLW

SMILES	IC50 [1] [nM]	IC50 [2] [nM]
CCc1cc2ncc(CN3CCN(c4ccc(C(=O)NC)nc4)[C@@H]4CC[C@H]43)cc2[nH]c1=O [US20250221987, Example 2-3]	72	1.5
CCc1cc2ncc(CN3CCN(c4ccc(C(=O)NC)nc4)[C@@H]4C[C@@H]43)cc2[nH]c1=O [US20250221987, Example 1-2]		0.7
CCc1cc2ncc(CN3CCN(c4ccc(C(=O)NC)nc4)C4CC43)cc2[nH]c1=O (stereo unspecified) [US20250221987, Example 1]		1.1
CCc1cc2ncc(CN3CCN(c4ccc(C(=O)NC)nc4)[C@H]4C[C@H]43)cc2[nH]c1=O [US20250221987, Example 1-1]		0.9

Second part, the compound after the results:

IC50 [1] [nM]	IC50 [2] [nM]	SMILES
40	1	CCc1cc2ncc(CN3CCN(c4ccc(C(=O)NC)nc4)[C@H]4CC[C@@H]43)cc2[nH]c1=O [US20250221987, Example 2-4]
> 300	6.6	CNC(=O)c1ccc(N2CCN(Cc3cnc4cc(OC)c(=O)[nH]c4c3)[C@H]3CC[C@H]32)cn1 [US20250221987, Example 33-1]
14	0.9	CCc1cc2ncc(CN3CCN(c4ccc(C(=O)NC)nc4)C4CCC43)cc2[nH]c1=O (stereo unspecified) [US20250221987, Example 2]
